From PubChem BioAssay AID248 (DTP/NCI, 2004)
Values joined by “and” are separate entries in the source; they are usually repeats but may differ in a detail not shown here. Identical values can stand only once. Toxic doses and inconclusive results are not listed. Cut-off read from the data, not from the text of the source: active = T/C of 150% or more; inactive = T/C below 125%.

Tested on: L1210 leukemia ip in BDF1 mice, survival T/C
Experiment: NCI In Vivo Anticancer Drug Screen. Data for tumor model L1210 Leukemia (intraperitoneal) in B6D2F1 (BDF1) mice
Conditions: endpoint: mean survival time, higher = longer survival
Outline: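 Antitumor effect is assessed in tumor-bearing animals. Survival in the compound arm is compared with a vehicle-dosed control arm and expressed as their quotient.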

[1] = dose: 100.0 mg/kg/injection, schedule: Q04DX002 (ip), vehicle: Klucel (hydroxypropylcellulose) (HPC)
[2] = dose: 200.0 mg/kg/injection, schedule: Q04DX002 (ip), vehicle: Klucel (hydroxypropylcellulose) (HPC)
[3] = dose: 400.0 mg/kg/injection, schedule: Q04DX002 (ip), vehicle: Klucel (hydroxypropylcellulose) (HPC)
[4] = dose: 100.0 mg/kg/injection, schedule: Q01DX001 (ip), vehicle: saline
[5] = dose: 50.0 mg/kg/injection, schedule: Q01DX009 (ip), vehicle: Klucel (hydroxypropylcellulose) (HPC)
[6] = dose: 100.0 mg/kg/injection, schedule: Q01DX009 (ip), vehicle: Klucel (hydroxypropylcellulose) (HPC)
[7] = dose: 100.0 mg/kg/injection, schedule: Q04DX003 (ip), vehicle: Klucel (hydroxypropylcellulose) (HPC)
[8] = dose: 200.0 mg/kg/injection, schedule: Q04DX003 (ip), vehicle: Klucel (hydroxypropylcellulose) (HPC)
[9] = dose: 50.0 mg/kg/injection, schedule: Q01DX001 (ip), vehicle: saline with Tween-80
[10] = dose: 100.0 mg/kg/injection, schedule: Q01DX001 (ip), vehicle: saline with Tween-80
[11] = dose: 200.0 mg/kg/injection, schedule: Q01DX001 (ip), vehicle: saline with Tween-80
[12] = dose: 100.0 mg/kg/injection, schedule: Q01DX001 (ip), vehicle: other
[13] = dose: 100.0 mg/kg/injection, schedule: Q04DX002 (ip), vehicle: saline
[14] = dose: 200.0 mg/kg/injection, schedule: Q01DX009 (ip), vehicle: Klucel (hydroxypropylcellulose) (HPC)
[15] = dose: 400.0 mg/kg/injection, schedule: Q01DX009 (ip), vehicle: Klucel (hydroxypropylcellulose) (HPC)
[16] = dose: 400.0 mg/kg/injection, schedule: Q04DX003 (ip), vehicle: Klucel (hydroxypropylcellulose) (HPC)

Measured: T/C

CCOC(=O)C(Cc1ccccc1)C1=NC(C)(C)CC(C)O1 (stereo not drawn)
inactive: dose: 10.0 mg/kg/injection, schedule: Q01DX009 (ip), vehicle: alcohol 100 % of control | dose: 200.0 mg/kg/injection, schedule: Q01DX009 (ip), vehicle: alcohol 104 % of control | dose: 400.0 mg/kg/injection, schedule: Q01DX009 (ip), vehicle: alcohol 102 % of control

Cn1cnc2cc(N=Cc3ccc(N(CCCl)CCCl)cc3F)ccc21
inactive: [1] 104 % of control | [2] 101 % of control | [3] 97 % of control

O=C(Nc1cnccn1)C(F)(F)F
inactive: [4] 105 % of control | dose: 200.0 mg/kg/injection, schedule: Q01DX001 (ip), vehicle: saline 97 % of control | dose: 400.0 mg/kg/injection, schedule: Q01DX001 (ip), vehicle: saline 105 % of control

CSc1ncnc2c1ncn2C1OC(CCC(N)=O)C(O)C1O (stereo not drawn)
inactive: dose: 50.0 mg/kg/injection, schedule: Q04DX002 (ip), vehicle: Klucel (hydroxypropylcellulose) (HPC) 98 % of control | [1] 101 % of control and 103 % of control | [2] 95 % of control | [3] 95 % of control

CC(NC(C)c1ccccc1)c1ccccc1 (stereo not drawn)
inactive: [5] 102 % of control | [6] 106 % of control | [7] 104 % of control | [8] 100 % of control

COc1c(O)ccc2c1-c1c3c(cc4c1C(C2)NCC4)OCO3 (stereo not drawn)
inactive: [4] 102 % of control

C(=N/N=C(N/N=C/c1ccccc1)N/N=C/c1ccccc1)/c1ccccc1
inactive: dose: 15.0 mg/kg/injection, schedule: Q01DX Z (ip), vehicle: carboxymethylcellulose (CMC) 95 % of control | dose: 30.0 mg/kg/injection, schedule: Q01DX Z (ip), vehicle: carboxymethylcellulose (CMC) 95 % of control | dose: 60.0 mg/kg/injection, schedule: Q01DX Z (ip), vehicle: carboxymethylcellulose (CMC) 92 % of control | dose: 120.0 mg/kg/injection, schedule: Q01DX Z (ip), vehicle: carboxymethylcellulose (CMC) 92 % of control | dose: 188.0 mg/kg/injection, schedule: Q01DX Z (oral), vehicle: carboxymethylcellulose (CMC) 95 % of control | dose: 375.0 mg/kg/injection, schedule: Q01DX Z (oral), vehicle: carboxymethylcellulose (CMC) 105 % of control | dose: 750.0 mg/kg/injection, schedule: Q01DX Z (oral), vehicle: carboxymethylcellulose (CMC) 110 % of control | dose: 1500.0 mg/kg/injection, schedule: Q01DX Z (oral), vehicle: carboxymethylcellulose (CMC) 100 % of control

O=C(O)C1C(c2ccccc2)C2(c3ccccc3)C(=O)C1(c1ccccc1)C(c1ccccc1)=C2c1ccccc1 (stereo not drawn)
inactive: dose: 25.0 mg/kg/injection, schedule: Q01DX001 (ip), vehicle: saline with Tween-80 98 % of control | [9] 88 % of control | [10] 91 % of control | [11] 90 % of control | dose: 400.0 mg/kg/injection, schedule: Q01DX001 (ip), vehicle: saline with Tween-80 90 % of control

O=[N+]([O-])c1ccc(Cn2cnc3c(Cl)ncnc32)cc1
inactive: [12] 90 % of control

CC1CC(C)(C)N=C(C(C)(C)c2ccccc2)O1 (stereo not drawn)
inactive: dose: 100.0 mg/kg/injection, schedule: Q04DX003 (ip), vehicle: saline sonified 102 % of control | dose: 200.0 mg/kg/injection, schedule: Q04DX003 (ip), vehicle: saline sonified 103 % of control | dose: 400.0 mg/kg/injection, schedule: Q04DX003 (ip), vehicle: saline sonified 98 % of control

CC1(C)OC(C(O)CO)C(C2COC(=S)O2)O1 (stereo not drawn)
inactive: [13] 107 % of control | dose: 200.0 mg/kg/injection, schedule: Q04DX002 (ip), vehicle: saline 104 % of control | dose: 400.0 mg/kg/injection, schedule: Q04DX002 (ip), vehicle: saline 100 % of control

CCC(Cl)COP(=O)(OCC(Cl)CC)OC(c1ccc(Cl)c(Cl)c1)P(=O)(OCC(Cl)CC)OCC(Cl)CC (stereo not drawn)
inactive: [9] 95 % of control | [10] 103 % of control | [11] 93 % of control

CCCCC(=O)c1ccc(F)cc1
inactive: [6] 96 % of control | [7] 105 % of control | [14] 98 % of control | [8] 93 % of control | [15] 98 % of control | [16] 100 % of control

O=C(O)C(O)C(O)C(=O)O.[Cu+2] (stereo not drawn)
inactive: dose: 5.0 mg/kg/injection, schedule: Q01DX001 (ip), vehicle: saline 95 % of control | dose: 10.0 mg/kg/injection, schedule: Q01DX001 (ip), vehicle: saline 89 % of control | dose: 20.0 mg/kg/injection, schedule: Q01DX001 (ip), vehicle: saline 93 % of control | dose: 40.0 mg/kg/injection, schedule: Q01DX001 (ip), vehicle: saline 101 % of control

C#CC[As+](c1ccccc1)(c1ccccc1)c1ccccc1
inactive: dose: 6.25 mg/kg/injection, schedule: Q01DX009 (ip), vehicle: Klucel (hydroxypropylcellulose) (HPC) 103 % of control | dose: 12.5 mg/kg/injection, schedule: Q04DX003 (ip), vehicle: Klucel (hydroxypropylcellulose) (HPC) 102 % of control

C[CH2][Ge]1([CH2]C)[CH2]CC2(C[CH2]1)CN(CCCN(C)C)CN2
inactive: [13] 103 % of control

Cc1cc(Cc2cc(C)c(C)c(C)c2C)c(C)c(C)c1C
inactive: [12] 96 % of control | dose: 200.0 mg/kg/injection, schedule: Q01DX001 (ip), vehicle: other 95 % of control | dose: 400.0 mg/kg/injection, schedule: Q01DX001 (ip), vehicle: other 90 % of control

COc1ccc(N=C(C(=Nc2ccc(OC)cc2)c2ccccc2)c2ccccc2)cc1
inactive: [6] 94 % of control | [7] 96 % of control | [14] 95 % of control | [8] 95 % of control | [15] 100 % of control | [16] 95 % of control

O=c1[nH]cnc2nn(C3OC(CO)C(O)C3O)cc12 (stereo not drawn)
inactive: dose: 100.0 mg/kg/injection, schedule: Q01DX005 (ip), vehicle: saline 105 % of control | dose: 200.0 mg/kg/injection, schedule: Q01DX005 (ip), vehicle: saline 104 % of control

CCN(CC)CCC(O)c1cc(-c2ccc(Cl)cc2)nc2ccc(OC)cc12 (stereo not drawn)
inactive: dose: 100.0 mg/kg/injection, schedule: Q01DX001 (ip), vehicle: carboxymethylcellulose (CMC) 94 % of control | dose: 100.0 mg/kg/injection, schedule: Q04DX003 (ip), vehicle: carboxymethylcellulose (CMC) 104 % of control | dose: 200.0 mg/kg/injection, schedule: Q01DX001 (ip), vehicle: carboxymethylcellulose (CMC) 92 % of control | dose: 200.0 mg/kg/injection, schedule: Q04DX003 (ip), vehicle: carboxymethylcellulose (CMC) 114 % of control | dose: 400.0 mg/kg/injection, schedule: Q01DX001 (ip), vehicle: carboxymethylcellulose (CMC) 94 % of control | dose: 400.0 mg/kg/injection, schedule: Q04DX003 (ip), vehicle: carboxymethylcellulose (CMC) 110 % of control

Cc1ccccc1NC(=S)N1CCOCC1
inactive: [6] 105 % of control | [14] 108 % of control | [15] 111 % of control

CCCCCOC(=O)C(O)C(C)(Cl)c1ccccc1 (stereo not drawn)
inactive: [1] 100 % of control | [2] 111 % of control | [3] 100 % of control

CCN=C(NCC)c1ccc(NC(=O)Nc2ccc(NC(=O)Nc3ccc(C(=NCC)NCC)cc3)cc2)cc1
inactive: dose: 0.87 mg/kg/injection, schedule: Q01DX Z (ip), vehicle: water 100 % of control | dose: 1.75 mg/kg/injection, schedule: Q01DX Z (ip), vehicle: water 100 % of control | dose: 3.5 mg/kg/injection, schedule: Q01DX Z (ip), vehicle: water 97 % of control | dose: 7.0 mg/kg/injection, schedule: Q01DX Z (ip), vehicle: water 103 % of control

NNC(=O)CCNCCC(=O)NN
inactive: dose: 100.0 mg/kg/injection, schedule: Q04DX002 (ip), vehicle: saline + alcohol 94 % of control | dose: 200.0 mg/kg/injection, schedule: Q04DX002 (ip), vehicle: saline + alcohol 88 % of control

CC1(C)CCCC(Br)C1=O (stereo not drawn)
inactive: [5] 97 % of control | [6] 104 % of control

NC1=NCN(c2ccc(Oc3ccc(S(=O)(=O)F)cc3)cc2)C(N)=N1
inactive: dose: 100.0 mg/kg/injection, schedule: Q01DX001 (ip), vehicle: Klucel (hydroxypropylcellulose) (HPC) 93 % of control | dose: 200.0 mg/kg/injection, schedule: Q01DX001 (ip), vehicle: Klucel (hydroxypropylcellulose) (HPC) 101 % of control | dose: 400.0 mg/kg/injection, schedule: Q01DX001 (ip), vehicle: Klucel (hydroxypropylcellulose) (HPC) 104 % of control
